Values joined by “and” are separate entries in the source; they are usually repeats but may differ in a detail not shown here. Equal entries are not always repeated. After the bases stand the sugars from the 5' end (letter, count) and the backbone: PS all phosphorothioate, else s phosphorothioate and o phosphodiester by linkage. Methylation of C is not given here. e = 2'-O-(2-methoxyethyl) (MOE); k = constrained ethyl (cEt); d = 2'-deoxy (DNA)
Molecular target: IRF4
Conditions: ASO

Sequence	target mRNA inhibition (MM.1R, 1 µM)	target mRNA inhibition (SK-MEL-28, 4 µM)
AGCATTTTATCATCCG (sugars kkkdddddddddkeke, PS)	42%	–
ATGGAGATACTTGTAC (sugars k3 d10 k3, PS)	–	62%
AATGGCAGCACCGTGT (sugars k3 d10 k3, PS)	0%	–
CCTACATACATTAATA (sugars k3 d10 k3, PS)	–	-7%
TGCTATTAAACTGATT (sugars k3 d10 k3, PS)	-3%	–
CTGAGACTACACCTAC (sugars k3 d10 k3, PS)	-40%	–
AGCACATGTCAACAGT (sugars k3 d10 k3, PS)	–	31%
TTATGCATGTTCCTCA (sugars k3 d10 k3, PS)	–	57%
TGGGATGCCACCATCC (sugars k3 d10 k3, PS)	-2%	–
TCAGTTTGTGAAGCAT (sugars kkdddddddddkdkdk, PS)	25%	–
AATAAACACCCCTTCT (sugars k3 d10 k3, PS)	–	21%
CTGCAGCCAAGGATAA (sugars k3 d10 k3, PS)	–	48%
TGTAGTATGAGAAACG (sugars kkkdddddddddkeke, PS)	29%	–
GAAGAATTTTAGCATC (sugars k3 d10 k3, PS)	–	56%
CCGGGTGTGGCTGATC (sugars k3 d10 k3, PS)	–	16%
GCTACGCAATCTTCTG (sugars k3 d10 k3, PS)	–	58%
ACCTTATGCTTGGCTC (sugars k4 d8 k4, PS)	–	30%
CATTATCTACCTCAGT (sugars k3 d10 k3, PS)	–	35%
CAGTGATGTCAGGTTT (sugars e1 k2 d9 k2 e2, PS)	20%	–
GACAATGGAGATACTT (sugars k3 d10 k3, PS)	33% and 37%	–
GTTGAAAGAACCAAGC (sugars k3 d10 k3, PS)	–	11%
GGCGCATAGGTCCTTC (sugars k3 d10 k3, PS)	-7%	–
CTATATAAAAAGTGGG (sugars k3 d10 k3, PS)	–	16%

Sequence	target mRNA inhibition (MM.1R, 1 µM)	target mRNA inhibition (SK-MEL-28, 4 µM)
TGCAGCACCGTGGTGC (sugars k3 d10 k3, PS)	-1%	–
TGAAATGGAGCATCCG (sugars k3 d10 k3, PS)	–	9%
GATATAAATAGCTGTT (sugars k3 d10 k3, PS)	–	37%
GAGTGTGCAGTTCCGT (sugars k3 d10 k3, PS)	–	67%
GGCACAGACATACCTA (sugars k3 d10 k3, PS)	–	48%
AGTTCATGTAAAGTCT (sugars kkddddddddddkeke, PS)	45% and 49%	–
GGTCATACCCTGGATC (sugars k3 d10 k3, PS)	–	49%
TTGGACAGAAGGGCAA (sugars k3 d10 k3, PS)	–	29%
GGCTGATAATTAATCT (sugars k3 d10 k3, PS)	–	47%
GGCCACCGACTCTTTT (sugars k3 d10 k3, PS)	–	13%
TGTTACCGATGCTTCA (sugars k3 d10 k3, PS)	–	49%
ACTGCTTGAGGTTTTC (sugars kkddddddddddkeke, PS)	21%	–
GGCAGACCTTATGCTT (sugars k3 d10 k3, PS)	–	21%
TGGCGGAGCATCAACA (sugars k3 d10 k3, PS)	–	37%
CCTTAGGATAATATAC (sugars k3 d10 k3, PS)	–	23%
CACCAAGGTCCAGAGT (sugars k3 d10 k3, PS)	–	20%
GAGGTTGCCGAGATAT (sugars k3 d10 k3, PS)	29%	–
GTATGAGAAACGGCCT (sugars k3 d10 k3, PS)	–	59%
AAACATCCAAAGGGTT (sugars k3 d10 k3, PS)	-1%	–
GGGATTATATACTGGT (sugars kddddddddddkekek, PS)	34%	–
ATGTGATAGCTGAGCT (sugars kddddddddddkekek, PS)	-3%	–
GTCAAACTATAATTGG (sugars k3 d10 k3, PS)	–	61%
TTTATGTTAGCCAATT (sugars k3 d10 k3, PS)	25% and 13%	–

Sequence	target mRNA inhibition (MM.1R, 1 µM)	target mRNA inhibition (SK-MEL-28, 4 µM)
CATTGCTAGATTCTCC (sugars k3 d10 k3, PS)	18% and 30%	–
TCCAGATGCAGATTCC (sugars k3 d10 k3, PS)	–	46%
CCACAATCAGCAAGTC (sugars k3 d10 k3, PS)	0%	–
GCAAAGCCACCCTTCC (sugars k3 d10 k3, PS)	–	60%
CATTCTAACAGATAAC (sugars k3 d10 k3, PS)	–	-2%
TAGCAGGGCACGCTCT (sugars k3 d10 k3, PS)	–	31%
CATCAATGATGGCAGT (sugars k3 d10 k3, PS)	–	50%
TCTTGTGGACACTTTT (sugars k3 d10 k3, PS)	–	65%
CAAGAACTGCTGTGTG (sugars k3 d10 k3, PS)	–	-5%
GCGCTCTCTCTGTAAC (sugars k3 d10 k3, PS)	-7%	–
AGCCGAGGCCTCCTTT (sugars k3 d10 k3, PS)	-28%	–
GAACAGGAAGCCACTA (sugars k3 d10 k3, PS)	–	23%
GAGTATTTCATAGCTA (sugars k3 d10 k3, PS)	–	71%
CTCACACACAGGATGT (sugars k3 d10 k3, PS)	–	18%
CACGGGAATTTCCATT (sugars k3 d10 k3, PS)	–	71%
CAAGCTTTCATTTGGG (sugars k3 d10 k3, PS)	–	74%
AATCAGATGTCACTGA (sugars k3 d10 k3, PS)	–	3%
CTCTGCTCTGCACTCG (sugars k3 d10 k3, PS)	–	41%
TGTTACCGATGCTTCA (sugars kkddddddddddkeke, PS)	25% and 42%	–
CTGCTTGAGGTTTTCC (sugars kddddddddddkekek, PS)	8%	–
TCTAGTTTGCCAATTC (sugars k3 d10 k3, PS)	–	62%
GAATGGCGAGTTGGCA (sugars k3 d10 k3, PS)	39% and 40%	–
AACCAAGAAATGCACC (sugars k3 d10 k3, PS)	–	33%

Sequence	target mRNA inhibition (MM.1R, 1 µM)	target mRNA inhibition (SK-MEL-28, 4 µM)
AGCCATCGGCAGCTGA (sugars k3 d10 k3, PS)	–	14%
AGCCAGAGCAGTAAAC (sugars k3 d10 k3, PS)	–	15%
CCCACATAACTCAGGC (sugars k3 d10 k3, PS)	-16%	–
TCTTACAGCAATCTTA (sugars k3 d10 k3, PS)	–	32%
TTAAGAGGCGACTGCT (sugars k3 d10 k3, PS)	–	12%
TTGGAAACCAGCCCTT (sugars k3 d10 k3, PS)	–	39%
TAGATCTGTGGTAATC (sugars k3 d10 k3, PS)	20% and 6%	–
ATGTTAGCCAATTCCT (sugars kkdddddddddekeke, PS)	27% and 30%	–
TCCTAACCCTGAGTAT (sugars k3 d10 k3, PS)	–	27%
ACTGTATGGAACCCCA (sugars k3 d10 k3, PS)	30%	–
GGCAACCTGCATTTGC (sugars k3 d10 k3, PS)	–	-13%
CACATCAATGTTTTAG (sugars kdddddddddkekeke, PS)	-2% and 18%	–
AGTAGCTGGGCCCTCG (sugars k3 d10 k3, PS)	–	62%
CCGGAGACCTTGAAGA (sugars k3 d10 k3, PS)	–	9%
TCCTTAATTATGCAGA (sugars k3 d10 k3, PS)	–	44%
AGGTTCCTGTCACCTG (sugars k3 d10 k3, PS)	-7%	–
CAGATTAATAGTAAGT (sugars k3 d10 k3, PS)	-12%	–
AGCTGAGCTGATCATC (sugars k3 d10 k3, PS)	–	56%
TCCCATCGAATCTGCC (sugars k3 d10 k3, PS)	-5%	–
GACTGGAACATTGTTG (sugars k3 d10 k3, PS)	-41%	–
TAAAACCTCATCCCCT (sugars k3 d10 k3, PS)	–	-26%
CACCCCTTCTTGTGGA (sugars k3 d10 k3, PS)	–	40%
GTATTTATGCCCTCGC (sugars k3 d10 k3, PS)	–	53%

Sequence	target mRNA inhibition (MM.1R, 1 µM)	target mRNA inhibition (SK-MEL-28, 4 µM)
GATTATATACTGGTTG (sugars kkdddddddddkdkdk, PS)	35%	–
GCCGCCCTCCAGGTTC (sugars k3 d10 k3, PS)	–	49%
CTTCACTCAGCAAGTG (sugars k3 d10 k3, PS)	–	43%
GCCACATTAGCAATTA (sugars k3 d10 k3, PS)	–	8%
ACGGAAGTTTACACTG (sugars kkkddddddddkekek, PS)	14%	–
GGACCTGGTCCAGGTT (sugars k4 d8 k4, PS)	–	-28%
CCCTTCAGCCACGAGG (sugars k3 d10 k3, PS)	–	8%
CGTTCCTTTTCAGAGT (sugars k3 d10 k3, PS)	–	30%
CCTGAACATGACTGGG (sugars k3 d10 k3, PS)	–	38%
CTGGAACATTGTTGGA (sugars k3 d10 k3, PS)	–	46%
ACCTCAGTTTGTGAAG (sugars k3 d10 k3, PS)	–	39%
CTACCTTTTTTGGCTC (sugars k3 d10 k3, PS)	–	17%
AGACAGACTTCCAAGA (sugars k3 d10 k3, PS)	–	36%
TCTGAGTGAGCTTGCC (sugars k3 d10 k3, PS)	–	49%
GGAGAAGTCCCGTGGA (sugars k3 d10 k3, PS)	–	59%
CTCTATAGTGTTCCAG (sugars kkdddddddddkekek, PS)	22%	–
GGTAATCTTCTGGATT (sugars k3 d10 k3, PS)	–	30%
AATCACTTGTCTTGGG (sugars k3 d10 k3, PS)	–	60%
CTGCACTCGCCCTGGA (sugars k3 d10 k3, PS)	–	42%

From the OligoGym collection
